# Assay results as given in US20250144067A1, “PERSONALIZED STARVATION THERAPY FOR CANCER” (Faeth Therapeutics, Inc., priority 2021, published 2025).
# Tested on: NCI-H292 lung cancer cells
# Assay: FDA drug screening, complete media vs cholesterol-free media without statin (TABLE 1)
# Format: cell-based, human
# Details: Complete minus Cholesterol-free; greater than 0 enhanced anti-cancer activity, about 0 neutral, below 0 antagonists
row,Molecule,Difference
1,Cc1cn(-c2cc(NC(=O)c3ccc(C)c(Nc4nccc(-c5cccnc5)n4)c3)cc(C(F)(F)F)c2)cn1,−0.54
2,CN[C@@H]1[C@H](O)[C@H](NC)[C@H]2O[C@@]3(O)C(=O)C[C@@H](C)O[C@H]3O[C@@H]2[C@H]1O.Cl.Cl.O.O.O.O.O,−0.93
3,CC(C)(CO)C(O)C(=O)NCCCO (racemic) [DL-Panthenol],−0.82
4,CC(C)Cc1ccc([C@@H](C)C(=O)O)cc1 [(R)-(—)-Ibuprofen],−0.96

# Same assay, conditions: NCI-H292 cells in cholesterol-free media without statin
row,Molecule,Cholesterol-free
1,Cc1cn(-c2cc(NC(=O)c3ccc(C)c(Nc4nccc(-c5cccnc5)n4)c3)cc(C(F)(F)F)c2)cn1,1.23
2,CN[C@@H]1[C@H](O)[C@H](NC)[C@H]2O[C@@]3(O)C(=O)C[C@@H](C)O[C@H]3O[C@@H]2[C@H]1O.Cl.Cl.O.O.O.O.O,1.889
3,CC(C)(CO)C(O)C(=O)NCCCO (racemic) [DL-Panthenol],1.816
4,CC(C)Cc1ccc([C@@H](C)C(=O)O)cc1 [(R)-(—)-Ibuprofen],1.742

# Same assay, conditions: NCI-H292 cells in complete media
row,Molecule,Complete
1,Cc1cn(-c2cc(NC(=O)c3ccc(C)c(Nc4nccc(-c5cccnc5)n4)c3)cc(C(F)(F)F)c2)cn1,0.6857
2,CN[C@@H]1[C@H](O)[C@H](NC)[C@H]2O[C@@]3(O)C(=O)C[C@@H](C)O[C@H]3O[C@@H]2[C@H]1O.Cl.Cl.O.O.O.O.O,0.9594
3,CC(C)(CO)C(O)C(=O)NCCCO (racemic) [DL-Panthenol],0.9995
4,CC(C)Cc1ccc([C@@H](C)C(=O)O)cc1 [(R)-(—)-Ibuprofen],0.7774

# Same assay, conditions: NCI-H292 cells, cholesterol-free media without statin
row,Molecule,Cholesterol-free
1,Clc1ccc2c(N3CCN(CCCN4CCN(c5ccnc6cc(Cl)ccc56)CC4)CC3)ccnc2c1,1.226
2,Cl.Cl.OCCN1CCN(CCC=C2c3ccccc3Sc3ccc(C(F)(F)F)cc32)CC1 (mixture of isomers) [Flupentixol dihydrochloride],1.101
3,CC1CCC(C(C)C)C(O)C1 (racemic) [DL-Menthol],1.299

# Same assay, conditions: NCI-H292 cells, cholesterol-free media without statin, FDA drug library screen
row,Molecule,Cholesterol-free
1,NC(=O)C(c1ccccc1)(c1ccccc1)[C@@H]1CCN(CCc2ccc3c(c2)CCO3)C1 (racemic) [(±)-Darifenacin],1.009
2,Cl.NCC(O)c1ccc(O)c(O)c1 (racemic) [DL-Norepinephrine (hydrochloride)],1.105

# Same assay, conditions: NCI-H292 cells, complete media
row,Molecule,Complete
1,CCOc1ccc(Cc2cc([C@@H]3O[C@H](CO)[C@@H](O)[C@H](O)[C@H]3O)ccc2Cl)cc1,0.6259
2,Clc1ccc2c(N3CCN(CCCN4CCN(c5ccnc6cc(Cl)ccc56)CC4)CC3)ccnc2c1,0.8255
3,Cl.Cl.OCCN1CCN(CCC=C2c3ccccc3Sc3ccc(C(F)(F)F)cc32)CC1 (mixture of isomers) [Flupentixol dihydrochloride],0.7804
4,CC1CCC(C(C)C)C(O)C1 (racemic) [DL-Menthol],0.8907

# Same assay, conditions: NCI-H292 cells, complete media, FDA drug library screen
row,Molecule,Complete
1,NC(=O)C(c1ccccc1)(c1ccccc1)[C@@H]1CCN(CCc2ccc3c(c2)CCO3)C1 (racemic) [(±)-Darifenacin],1.18
2,Cl.NCC(O)c1ccc(O)c(O)c1 (racemic) [DL-Norepinephrine (hydrochloride)],1.652

# Same assay, conditions: complete vs cholesterol-free media; >0 enhanced anti-cancer activity, about 0 neutral, <0 antagonist
row,Molecule,Difference
1,NC(=O)C(c1ccccc1)(c1ccccc1)[C@@H]1CCN(CCc2ccc3c(c2)CCO3)C1 (racemic) [(±)-Darifenacin],0.17
2,Cl.NCC(O)c1ccc(O)c(O)c1 (racemic) [DL-Norepinephrine (hydrochloride)],0.55

# Same assay, conditions: complete vs cholesterol-free media; […]
row,Molecule,Difference
1,Clc1ccc2c(N3CCN(CCCN4CCN(c5ccnc6cc(Cl)ccc56)CC4)CC3)ccnc2c1,−0.40

# Same assay, conditions: complete vs cholesterol-free media; greater than 0 enhanced anti-cancer activity, about 0 neutral, below 0 antagonists
row,Molecule,Difference
1,CCOc1ccc(Cc2cc([C@@H]3O[C@H](CO)[C@@H](O)[C@H](O)[C@H]3O)ccc2Cl)cc1,−0.32
2,Cl.Cl.OCCN1CCN(CCC=C2c3ccccc3Sc3ccc(C(F)(F)F)cc32)CC1 (mixture of isomers) [Flupentixol dihydrochloride],−0.32
3,CC1CCC(C(C)C)C(O)C1 (racemic) [DL-Menthol],−0.41

# Tested on: NCI-H292 lung cancer cells
# Assay: FDA drug screening, complete media vs cholesterol-free media with simvastatin (TABLE 2)
# Format: cell-based, human
# Details: NCI-H292 cells, FDA drug library screen, cholesterol-free media with simvastatin 0.04 μM
row,Molecule,Cholesterol-free media + simvastatin (0.04 μM)
1,CCOc1ccc(Cc2cc([C@@H]3O[C@H](CO)[C@@H](O)[C@H](O)[C@H]3O)ccc2Cl)cc1,0.9312
2,Cc1cn(-c2cc(NC(=O)c3ccc(C)c(Nc4nccc(-c5cccnc5)n4)c3)cc(C(F)(F)F)c2)cn1,0.854
3,Clc1ccc2c(N3CCN(CCCN4CCN(c5ccnc6cc(Cl)ccc56)CC4)CC3)ccnc2c1,0.9008
4,CN[C@@H]1[C@H](O)[C@H](NC)[C@H]2O[C@@]3(O)C(=O)C[C@@H](C)O[C@H]3O[C@@H]2[C@H]1O.Cl.Cl.O.O.O.O.O,0.773
5,Cl.Cl.OCCN1CCN(CCC=C2c3ccccc3Sc3ccc(C(F)(F)F)cc32)CC1 (mixture of isomers) [Flupentixol dihydrochloride],0.5255
6,NC(=O)C(c1ccccc1)(c1ccccc1)[C@@H]1CCN(CCc2ccc3c(c2)CCO3)C1 (racemic) [(±)-Darifenacin],0.9772
7,CC1CCC(C(C)C)C(O)C1 (racemic) [DL-Menthol],0.8922
8,CC(C)(CO)C(O)C(=O)NCCCO (racemic) [DL-Panthenol],1.177
9,CCN(CC)C(=O)C1(c2ccccc2)CC1CN.Cl (stereo not drawn) [Milnacipran ((1S-cis) hydrochloride)],0.9487

# Same assay, conditions: NCI-H292 cells, FDA drug library screen, complete media
row,Molecule,Complete Media
1,CCOc1ccc(Cc2cc([C@@H]3O[C@H](CO)[C@@H](O)[C@H](O)[C@H]3O)ccc2Cl)cc1,1.177
2,Cc1cn(-c2cc(NC(=O)c3ccc(C)c(Nc4nccc(-c5cccnc5)n4)c3)cc(C(F)(F)F)c2)cn1,0.7821
3,Clc1ccc2c(N3CCN(CCCN4CCN(c5ccnc6cc(Cl)ccc56)CC4)CC3)ccnc2c1,1.047
4,CN[C@@H]1[C@H](O)[C@H](NC)[C@H]2O[C@@]3(O)C(=O)C[C@@H](C)O[C@H]3O[C@@H]2[C@H]1O.Cl.Cl.O.O.O.O.O,0.9222
5,Cl.Cl.OCCN1CCN(CCC=C2c3ccccc3Sc3ccc(C(F)(F)F)cc32)CC1 (mixture of isomers) [Flupentixol dihydrochloride],1.084
6,NC(=O)C(c1ccccc1)(c1ccccc1)[C@@H]1CCN(CCc2ccc3c(c2)CCO3)C1 (racemic) [(±)-Darifenacin],0.8726
7,CC1CCC(C(C)C)C(O)C1 (racemic) [DL-Menthol],1.05
8,CC(C)(CO)C(O)C(=O)NCCCO (racemic) [DL-Panthenol],1.049
9,CCN(CC)C(=O)C1(c2ccccc2)CC1CN.Cl (stereo not drawn) [Milnacipran ((1S-cis) hydrochloride)],0.8731
10,γ-Oryzanol,1.39

# Same assay, conditions: NCI-H292 cells, FDA library drug in cholesterol-free media with simvastatin 0.04 μM
row,Molecule,Cholesterol-free media + simvastatin (0.04 μM)
1,Cl.NCC(O)c1ccc(O)c(O)c1 (racemic) [DL-Norepinephrine (hydrochloride)],0.9652

# Same assay, conditions: NCI-H292 cells, FDA library drug in complete media
row,Molecule,Complete Media
1,Cl.NCC(O)c1ccc(O)c(O)c1 (racemic) [DL-Norepinephrine (hydrochloride)],0.176

# Same assay, conditions: NCI-H292 cells, cholesterol-free media with simvastatin 0.04 μM; FDA drug library screen (TABLE 2)
row,Molecule,Cholesterol-free media + simvastatin (0.04 μM)
1,NS(=O)(=O)c1cc(C(=O)O)c(NCc2ccco2)cc1Cl [Furosemide (sodium)],1.074
2,Dihydroergotoxine (mesylate),0.9089

# Same assay, conditions: NCI-H292 cells, complete media; FDA drug library screen (TABLE 2)
row,Molecule,Complete Media
1,NS(=O)(=O)c1cc(C(=O)O)c(NCc2ccco2)cc1Cl [Furosemide (sodium)],1.02
2,Dihydroergotoxine (mesylate),0.9065

# Same assay, conditions: NCI-H292 cells, drug in cholesterol-free media with simvastatin 0.04 μM
row,Molecule,Cholesterol-free media + simvastatin (0.04 μM)
1,NS(=O)(=O)c1cc(C(=O)O)c(NCc2ccco2)cc1Cl [Furosemide],1.11

# Same assay, conditions: NCI-H292 cells, drug in complete media
row,Molecule,Complete Media
1,NS(=O)(=O)c1cc(C(=O)O)c(NCc2ccco2)cc1Cl [Furosemide],0.894

# Same assay, conditions: complete media minus cholesterol-free media + simvastatin (0.04 μM); >0 enhanced anti-cancer activity, about 0 neutral, <0 antagonist
row,Molecule,Difference
1,CC(C)Cc1ccc([C@@H](C)C(=O)O)cc1 [(R)-(−)-Ibuprofen],0.01
2,NS(=O)(=O)c1cc(C(=O)O)c(NCc2ccco2)cc1Cl [Furosemide (sodium)],−0.05

# Same assay, conditions: complete media minus cholesterol-free media + simvastatin (0.04 μM); […]
row,Molecule,Difference
1,Dihydroergotoxine (mesylate),0.00

# Same assay, conditions: complete media minus cholesterol-free media + simvastatin; >0 enhanced anti-cancer activity, about 0 neutral, <0 antagonist
row,Molecule,Difference
1,CCOc1ccc(Cc2cc([C@@H]3O[C@H](CO)[C@@H](O)[C@H](O)[C@H]3O)ccc2Cl)cc1,0.25
2,CN[C@@H]1[C@H](O)[C@H](NC)[C@H]2O[C@@]3(O)C(=O)C[C@@H](C)O[C@H]3O[C@@H]2[C@H]1O.Cl.Cl.O.O.O.O.O,0.15
3,Cl.Cl.OCCN1CCN(CCC=C2c3ccccc3Sc3ccc(C(F)(F)F)cc32)CC1 (mixture of isomers) [Flupentixol dihydrochloride],0.56
4,CC1CCC(C(C)C)C(O)C1 (racemic) [DL-Menthol],0.16

# Same assay, conditions: complete media minus cholesterol-free media + simvastatin; […]
row,Molecule,Difference
1,Clc1ccc2c(N3CCN(CCCN4CCN(c5ccnc6cc(Cl)ccc56)CC4)CC3)ccnc2c1,0.15
2,γ-Oryzanol,0.24

# Same assay, conditions: complete media vs cholesterol-free media + simvastatin (0.04 μM); >0 enhanced anti-cancer activity, about 0 neutral, <0 antagonist
row,Molecule,Difference
1,Cc1cn(-c2cc(NC(=O)c3ccc(C)c(Nc4nccc(-c5cccnc5)n4)c3)cc(C(F)(F)F)c2)cn1,−0.07
2,NC(=O)C(c1ccccc1)(c1ccccc1)[C@@H]1CCN(CCc2ccc3c(c2)CCO3)C1 (racemic) [(±)-Darifenacin],−0.10
3,Cl.NCC(O)c1ccc(O)c(O)c1 (racemic) [DL-Norepinephrine (hydrochloride)],−0.79
4,CC(C)(CO)C(O)C(=O)NCCCO (racemic) [DL-Panthenol],−0.13
5,NS(=O)(=O)c1cc(C(=O)O)c(NCc2ccco2)cc1Cl [Furosemide],−0.22

# Same assay, conditions: complete media vs cholesterol-free media + simvastatin (0.04 μM); […]
row,Molecule,Difference
1,CCN(CC)C(=O)C1(c2ccccc2)CC1CN.Cl (stereo not drawn) [Milnacipran ((1S-cis) hydrochloride)],−0.08
